Test [1] deals with p90 ribosomal S6 kinase, or RSK. The settings on record: cultured tumor cells; cited from earlier work.
For test [2], the system named is C57BL/6J mice. The experiment in a line: forced-swim test, C57BL/6J mice. In kind it is in vivo, mouse. The following applies: for immobility in forced-swim test: last 4 minutes of 6-minute test. The protocol:
Briefly, in the Porsolt forced swim test, swim sessions are conducted by placing animals in containers with a level of water selected to be deep enough so that the animal cannot touch the bottom with its hind limbs or tail, nor can it escape. Two swim sessions are conducted, an initial 15 minute pretest one day prior to administration of the antidepressant drug and a second 5 minute test after administration of the drug (e.g., infusion of the drug into the midbrain) is begun. Each animal's 5 minute test sessions are videotaped for scoring later. The amount of time the animal spends active (swimming, exploring or trying to escape) and the time the rat is immobile (not struggling and making only those movements necessary to keep its head above water) is measured. Drugs with anti-depressant like activity decrease the immobility time.
(§1) As described above, the murine responses in forced swim and tail suspension tests provides a model for determining depression. We tested C57BL/6J and DBA/2J mice in the forced-swim and tail-suspension tests. In the forced-swim test, mice were gently placed in a clear plastic cylinder, diameter of 16 cm, height 25 cm, filled with 10 cm of clear water at 25° C. Test duration was 6 minutes and immobility, defined as the absence of all movement except minor movement required for the mouse to keep its head above the surface, was measured during the last 4 minutes. In the tail-suspension test, mice were suspended from a metal rod mounted 50 cm above the surface by fastening the tail to the rod with adhesive tape. The duration of the test was 6 minutes and immobility, defined as the absence of all but respiratory movements, was measured during the last 4 minutes. During the last 4 minutes of a 6-minute forced swim, unmedicated inbred C57BL/6J mice spent 152 seconds of the possible 240 seconds immobile (FIG. 2). In contrast, inbred DBA/2J mice had baseline (unmedicated) immobilities of 47 seconds (see FIG. 2). […] We investigated the hypothesis that the differences between these two inbred mouse lines that result in differing baseline immobilities in the forced-swim test at least in part arise from differences in the amount of mRNA that accumulates from specific genes.
We purchased some of the compound (Toronto Research Chemicals Inc., 2 Brisbane Rd., North York, Ontario, Canada M3J 2J8) and dissolved it in phosphate-buffered saline (PBS) containing 2.5 percent methanol.
When plain PBS/methanol solution (without 3Ac-SL0101) was administered to C57BL/6J mice, their immobility was 127 seconds. When the solution containing the 3Ac-SL0101 compound was administered in a very low dose, their immobility was reduced to 78 seconds, indicative of an antidepressant-like effect. […] When the compound was administered to DBA/2J mice, it was effective at an approximately 10-fold lower dose than in C57BL/6J mice, highly consistent with the notion that it is functioning by reducing the activity of rpS6.

The test system of the next test is mice. The experiment in a line: tail-suspension test. The settings on record: mouse, in vivo. The protocol:
An additional procedure for monitoring the effects of antidepressants involves suspending the mice by the tail from a lever and recording movements of the animal. The total duration of the test (usually about 6 minutes) can be divided into periods of agitation and immobility. Antidepressants will generally decrease the duration of immobility (Stem et al., Psychopharmacology 85(3) 367-70). A computerized version of this test, referred to as […]-TST has been developed and is well known to those of skill in that art as a primary screening test for antidepressant activity (Stem et al., Prog. Neuropsychpharmacol. Biol. Psychiatry 11(6)659-671, 1987). Additional devices for monitoring depression also are known to those of skill in the art (Nomura et al., Yakubutsu Seishiiz Kodo 12(5)207-13, 1992).
As described above, the murine responses in forced swim and tail suspension tests provides a model for determining depression. We tested C57BL/6J and DBA/2J mice in the forced-swim and tail-suspension tests. […] Test duration was 6 minutes and immobility, defined as the absence of all movement except minor movement required for the mouse to keep its head above the surface, was measured during the last 4 minutes. […] The duration of the test was 6 minutes and immobility, defined as the absence of all but respiratory movements, was measured during the last 4 minutes. […]

Test [3] deals with DBA/2J mice. Put plainly: forced-swim test, DBA/2J mice. In kind it is in vivo, mouse. The settings on record: DBA/2J mice versus C57BL/6J mice. The protocol:
as §1, with “genes. […]” for “genes.”

In a further test the test system is p90 RSK. The settings on record: cited from earlier work.
The subject of test [4] is C57BL/6J mice. The settings on record: 10 mg/kg, last 4 minutes of 6-minute forced swim, unmedicated 143 seconds; cited from earlier work.
Test [5] relates to DBA/2J mice. The following applies: baseline 100 seconds; cited from earlier work.
The target of a further test is RSK2 (Homo sapiens, UniProt P51812). The settings on record: cited from earlier work.
Sequence of RSK2 (P51812 whole entry): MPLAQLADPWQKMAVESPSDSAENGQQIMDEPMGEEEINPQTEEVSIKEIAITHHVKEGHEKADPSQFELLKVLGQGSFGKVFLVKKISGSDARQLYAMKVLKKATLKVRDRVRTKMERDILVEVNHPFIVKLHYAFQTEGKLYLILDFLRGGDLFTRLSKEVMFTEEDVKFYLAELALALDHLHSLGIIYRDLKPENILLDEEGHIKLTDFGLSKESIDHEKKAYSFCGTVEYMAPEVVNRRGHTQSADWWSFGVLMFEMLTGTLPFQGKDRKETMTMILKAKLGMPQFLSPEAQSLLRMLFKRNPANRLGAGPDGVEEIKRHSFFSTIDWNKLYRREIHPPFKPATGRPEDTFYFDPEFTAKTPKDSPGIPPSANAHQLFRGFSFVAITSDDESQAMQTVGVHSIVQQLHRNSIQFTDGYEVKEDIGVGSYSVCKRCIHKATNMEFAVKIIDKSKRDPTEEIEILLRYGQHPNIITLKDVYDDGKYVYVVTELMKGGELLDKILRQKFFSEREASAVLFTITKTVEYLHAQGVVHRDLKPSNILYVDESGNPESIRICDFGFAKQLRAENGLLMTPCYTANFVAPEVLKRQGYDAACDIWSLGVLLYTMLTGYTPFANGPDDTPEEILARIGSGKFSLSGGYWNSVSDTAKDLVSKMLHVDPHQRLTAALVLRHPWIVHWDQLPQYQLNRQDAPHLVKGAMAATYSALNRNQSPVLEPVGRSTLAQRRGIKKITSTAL

Structures are written as SMILES.

For the molecule `CC(=O)O[C@@H]1[C@@H](OC(C)=O)[C@H](C)O[C@@H](Oc2c(-c3ccc(O)cc3)oc3cc(O)cc(O)c3c2=O)[C@@H]1OC(C)=O` [3Ac-SL0101], the “inhibition of RSK activity” value in test [1] is recorded as “inhibits the activity of this kinase”. Besides, the “immobility in forced-swim test” value in the test with C57BL/6J mice [2] (20-fold higher dose) was found to be 0 s; with C57BL/6J mice [2] (very low dose, PBS/methanol control 127 seconds), 78 s. Moreover, in the test with C57BL/6J mice [2] (varying dosages, FIG. 3), the “dose response of immobility in forced-swim test” value is “monotonic dose-response effect”. Moreover, the “immobility in tail-suspension test” value with mice is listed as “reduced immobility”. In addition, the “effective dose in DBA/2J mice relative to C57BL/6J mice” value with DBA/2J mice [3] is “approximately 10 fold lower dose”.
`CC(C)CCN1c2nc(Nc3cc(F)c(O)c(F)c3)ncc2N(C)C(=O)C1C` (stereo not shown) [BI-D1870]: the “time of immobility in forced swim test” value in the test on C57BL/6J mice [2] (FIG. 4) was “substantial reduction”. For the same molecule, the “inhibition of p90 RSK” value in the test with p90 RSK is on record as “specific inhibitor of the p90 RSK”.
`CNCCCN1c2ccccc2CCc2ccccc21` [desipramine]: the results for the “immobility in forced swim” value in the test with C57BL/6J mice [4] and in the test with DBA/2J mice [5] were 100 s and 50 s, respectively.
Consider `CNCCC(Oc1ccc(C(F)(F)F)cc1)c1ccccc1` (stereo not shown) [fluoxetine], for which the “immobility in forced swim” value with DBA/2J mice [5] was 50 s.
As to `O=c1c(O)c(-c2ccc(O)cc2)oc2cc(O)cc(O)c12` [kaempferol], the “inhibition of RSK2” value at RSK2 is recorded as “inhibitor of the RSK2”. The “immobility time in forced-swim test” value with C57BL/6J mice [2] (dose dependent manner, within minutes after intraperitoneal injection) is recorded as “reduce immobility time”.
